We go through eight molecules from patent US20240228489A1, “POSITIVE ALLOSTERIC MODULATORS OF THE MUSCARINIC ACETYLCHOLINE RECEPTOR M1” (Vanderbilt University, priority 2021, published 2024).

The EC50 is the concentration giving half of the maximal effect. The Emax is the size of the effect at its maximum, as opposed to the concentration needed.

Assay [1] deals with T1, human mAChR M1 (Homo sapiens, UniProt P11229).
T1 sequence (P11229 1-460): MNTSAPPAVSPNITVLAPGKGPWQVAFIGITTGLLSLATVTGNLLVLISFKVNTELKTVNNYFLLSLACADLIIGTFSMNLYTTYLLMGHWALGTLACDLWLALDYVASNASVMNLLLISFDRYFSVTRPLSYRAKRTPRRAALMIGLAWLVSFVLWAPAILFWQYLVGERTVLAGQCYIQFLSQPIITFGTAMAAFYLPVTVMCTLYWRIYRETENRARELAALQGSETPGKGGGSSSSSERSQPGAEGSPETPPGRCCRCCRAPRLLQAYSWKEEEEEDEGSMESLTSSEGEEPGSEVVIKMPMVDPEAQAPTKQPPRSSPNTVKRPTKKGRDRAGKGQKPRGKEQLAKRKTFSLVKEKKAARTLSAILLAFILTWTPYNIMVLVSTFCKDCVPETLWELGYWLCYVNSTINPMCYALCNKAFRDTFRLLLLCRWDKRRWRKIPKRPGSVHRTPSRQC
Put plainly: mAChR M1 cell-based functional assay (calcium mobilization), PAM mode: increase in the EC20 acetylcholine response. The gist of the method:
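CHO-K1 cells stably expressing hM1, Fluo-4 loaded, read by FDSS calcium flux at 1 Hz. Compound (11-point 1:3 CRC) added at 4 s, EC20 acetylcholine at 144 s, EC80 at 230 s. PAM activity taken as concentration-dependent increase in EC20 ACh response, fitted by four-parameter logistic for EC50/Emax.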
Background: A change in cytosolic calcium serves as a functional read-out for many receptors and channels.

The target of assay [2] is T1, human mAChR M1. Briefly: mAChR M1 cell-based functional assay (calcium mobilization), agonist mode: compound alone, Emax relative to acetylcholine maximum. The settings on record: for Agonist Activity Human M1 EC50 / EC50: human mAChR M1; for Emax: relative to the maximum for acetylcholine. The gist of the method: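 CHO-K1 cells stably expressing hM1 were loaded with Fluo-4 AM, and calcium flux was read as fluorescence ratio. Compound was added alone from an 11-point 1:3 curve, and the agonist response was fitted with a four-parameter logistic. Emax is expressed relative to the acetylcholine maximum.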

The structures appear in SMILES notation.

On to `[2H]C([2H])([2H])Oc1cc(-c2cc(F)c(CN3C(=O)c4cccnc4C3([2H])[2H])c(F)c2)c2cnn(C([2H])([2H])[2H])c2c1` [Compound 88, 6-(2,6-difluoro-4-(6-(methoxy-d3)-1-(methyl-d3)-1H-indazol-4-yl)benzyl)-6,7-dihydro-5H-pyrrolo[3,4-b]pyridin-5-one-7,7-d2], for which, on human mAChR M1 [1], the 50% effective concentration (EC50) turned out to be 2700 nM and the Emax amounted to 37%. Further, on human mAChR M1 [2], the “Agonist Activity Human M1 EC50” value is recorded as “Inactive” and the Emax came out at 2%.
On to `[2H]C1([2H])c2ncccc2C(=O)N1Cc1c(F)cc(-c2cc(Cl)c3nn(C)cc3c2)cc1F` [Compound 89, 6-(4-(7-chloro-2-methyl-2H-indazol-5-yl)-2,6-difluorobenzyl)-6,7-dihydro-5H-pyrrolo[3,4-b]pyridin-5-one-7,7-d2], for which, at human mAChR M1 [1], the concentration giving a half-maximal response (EC50) came out at 88 nM and the maximal response (Emax) came to 46%. In addition, at human mAChR M1 [2], the “Agonist Activity Human M1 EC50” value is recorded as “Inactive” and the maximal effect (Emax) was 1%.
For `[2H]C1([2H])c2ncccc2C(=O)N1Cc1c(F)cc(-c2cc(OC)cc3nn(C)cc23)cc1F` [Compound 90, 6-(2,6-difluoro-4-(6-methoxy-2-methyl-2H-indazol-4-yl)benzyl)-6,7-dihydro-5H-pyrrolo[3,4-b]pyridin-5-one-7,7-d2], in that order: 1700 nM, 72%, “Inactive” and 2%.
As to `[2H]C1([2H])c2ncccc2C(=O)N1Cc1c(F)cc(-c2cn(C)c(=O)c3nn(C([2H])([2H])[2H])cc23)cc1F` [Compound 91, 4-(3,5-difluoro-4-((5-oxo-5,7-dihydro-6H-pyrrolo[3,4-b]pyridin-6-yl-7,7-d2)methyl)phenyl)-6-methyl-2-(methyl-d3)-2,6-dihydro-7H-pyrazolo[3,4-c]pyridin-7-one], at human mAChR M1 [1], the EC50 came to 718 nM and the Emax amounted to 84%. Further, at human mAChR M1 [2], the concentration giving a half-maximal response (EC50) is 7740 nM and the Emax was 22%.
`[2H]C1([2H])c2ncccc2C(=O)N1Cc1c(F)cc(-c2cn(C)c(=O)c3c2cnn3C([2H])([2H])[2H])cc1F` [Compound 92, 4-(3,5-difluoro-4-((5-oxo-5,7-dihydro-6H-pyrrolo[3,4-b]pyridin-6-yl-7,7-d2)methyl)phenyl)-6-methyl-1-(methyl-d3)-1,6-dihydro-7H-pyrazolo[3,4-c]pyridin-7-one]: at human mAChR M1 [1], the EC50 amounted to 2400 nM and the Emax amounted to 54%. Besides, at human mAChR M1 [2], the “Agonist Activity Human M1 EC50” value was “Inactive” and the Emax turned out to be 2%.
As to `[2H]C([2H])([2H])Oc1ccc(-c2cc(F)c(CN3C(=O)c4cccnc4C3([2H])[2H])c(F)c2)c2cn(C)nc12` [Compound 93, 6-(2,6-difluoro-4-(7-(methoxy-d3)-2-methyl-2H-indazol-4-yl)benzyl)-6,7-dihydro-5H-pyrrolo[3,4-b]pyridin-5-one-7,7-d2], at human mAChR M1 [1], the EC50 was 131 nM and the Emax was found to be 76%. On human mAChR M1 [2], the EC50 came out at 3300 nM and the Emax was 21%.
For `[2H]C([2H])([2H])Oc1ccc(-c2cc(F)c(CN3C(=O)c4cccnc4C3([2H])[2H])c(F)c2)c2cn(C([2H])([2H])[2H])nc12` [Compound 94, 6-(2,6-difluoro-4-(7-(methoxy-d3)-2-(methyl-d3)-2H-indazol-4-yl)benzyl)-6,7-dihydro-5H-pyrrolo[3,4-b]pyridin-5-one-7,7-d2], in that order: 139 nM, 76%, 3540 nM and 19%.
Consider `[2H]C([2H])([2H])Oc1ccc(-c2cc(F)c(CN3C(=O)c4cccnc4C3([2H])[2H])c(F)c2)c2cnn(C([2H])([2H])[2H])c12` [Compound 95, 6-(2,6-difluoro-4-(7-(methoxy-d3)-1-(methyl-d3)-1H-indazol-4-yl)benzyl)-6,7-dihydro-5H-pyrrolo[3,4-b]pyridin-5-one-7,7-d2], for which, at human mAChR M1 [1], the half-maximal effective concentration (EC50) turned out to be 1400 nM and the Emax amounted to 72%. On human mAChR M1 [2], the “Agonist Activity Human M1 EC50” value is “Inactive” and the maximum response (Emax) came out at 3%.
